From PubChem BioAssay AID330 (DTP/NCI, 2004)
Values joined by “and” are separate entries in the source; they are usually repeats but may differ in a detail not shown here. Identical values can stand only once. Toxic doses and inconclusive results are not listed. How the source made its calls: active means survival T/C of 150% or more; inactive means T/C below 125% in these data.

Tested on: P388 leukemia ip, CD2F1 mice, survival T/C
Assay: NCI In Vivo Anticancer Drug Screen. Data for tumor model P388 Leukemia (intraperitoneal) in CD2F1 (CDF1) mice
Details: endpoint: median survival time, higher = longer survival
Procedure, shortened: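 Mice carrying the transplanted tumor received test compound or vehicle. Survival was recorded in each group, and the value is the treated-group measurement divided by that of the vehicle-treated control group.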

[1] = dose: 50.0 mg/kg/injection, schedule: Q01DX009 (ip), vehicle: Klucel (hydroxypropylcellulose) (HPC)
[2] = dose: 50.0 mg/kg/injection, schedule: Q01DX005 (ip), vehicle: saline with Tween-80
[3] = dose: 100.0 mg/kg/injection, schedule: Q01DX005 (ip), vehicle: saline with Tween-80
[4] = dose: 50.0 mg/kg/injection, schedule: Q01DX009 (ip), vehicle: saline
[5] = dose: 100.0 mg/kg/injection, schedule: Q01DX009 (ip), vehicle: saline
[6] = dose: 200.0 mg/kg/injection, schedule: Q01DX009 (ip), vehicle: saline
[7] = dose: 60.0 mg/kg/injection, schedule: Q01DX005 (ip), vehicle: saline
[8] = dose: 120.0 mg/kg/injection, schedule: Q01DX005 (ip), vehicle: saline
[9] = dose: 240.0 mg/kg/injection, schedule: Q01DX005 (ip), vehicle: saline
[10] = dose: 100.0 mg/kg/injection, schedule: Q01DX001 (ip), vehicle: saline with Tween-80
[11] = dose: 200.0 mg/kg/injection, schedule: Q01DX001 (ip), vehicle: saline with Tween-80
[12] = dose: 25.0 mg/kg/injection, schedule: Q01DX005 (ip), vehicle: Klucel (hydroxypropylcellulose) (HPC)
[13] = dose: 50.0 mg/kg/injection, schedule: Q01DX005 (ip), vehicle: Klucel (hydroxypropylcellulose) (HPC)
[14] = dose: 100.0 mg/kg/injection, schedule: Q01DX005 (ip), vehicle: Klucel (hydroxypropylcellulose) (HPC)
[15] = dose: 200.0 mg/kg/injection, schedule: Q01DX005 (ip), vehicle: Klucel (hydroxypropylcellulose) (HPC)
[16] = dose: 25.0 mg/kg/injection, schedule: Q01DX009 (ip), vehicle: other
[17] = dose: 12.5 mg/kg/injection, schedule: Q01DX005 (ip), vehicle: Klucel (hydroxypropylcellulose) (HPC)
[18] = dose: 200.0 mg/kg/injection, schedule: Q01DX005 (ip), vehicle: saline with Tween-80

Measured: T/C

COC1OC(CS[As](C)C)C(O)C(O)C1O (stereo unspecified)
inactive: dose: 6.25 mg/kg/injection, schedule: Q01DX009 (ip), vehicle: Klucel (hydroxypropylcellulose) (HPC) 95 % of control | dose: 12.5 mg/kg/injection, schedule: Q01DX009 (ip), vehicle: Klucel (hydroxypropylcellulose) (HPC) 100 % of control | dose: 25.0 mg/kg/injection, schedule: Q01DX009 (ip), vehicle: Klucel (hydroxypropylcellulose) (HPC) 103 % of control | [1] 106 % of control

CCC[CH2][Pb]([Cl])([CH2]CCC)[CH2]CCC
inactive: dose: 1.25 mg/kg/injection, schedule: Q01DX009 (ip), vehicle: saline with Tween-80 99 % of control | dose: 2.5 mg/kg/injection, schedule: Q01DX009 (ip), vehicle: saline with Tween-80 99 % of control | dose: 5.0 mg/kg/injection, schedule: Q01DX009 (ip), vehicle: saline with Tween-80 107 % of control | dose: 10.0 mg/kg/injection, schedule: Q01DX009 (ip), vehicle: saline with Tween-80 103 % of control

Clc1ncnc2ccccc12
inactive: [2] 105 % of control | [3] 89 % of control

C=CCc1ccc(OC)c(O)c1C(=O)OCC
inactive: [4] 103 % of control | [5] 103 % of control | [6] 95 % of control

CCC1C(=O)CC(C(=O)O)C1C(=O)O (stereo unspecified)
inactive: dose: 30.0 mg/kg/injection, schedule: Q01DX005 (ip), vehicle: saline 98 % of control | [7] 98 % of control and 96 % of control | [8] 95 % of control | [9] 86 % of control

CC(NC(CCCN=C(N)N)C(=O)O)C(=O)O (stereo unspecified)
inactive: [7] 92 % of control | [8] 100 % of control | [9] 100 % of control

O=C(NCC1OC(n2cnc3c(=O)[nH]cnc32)C(O)C1O)c1ccc(S(=O)(=O)F)cc1 (stereo unspecified)
inactive: dose: 50.0 mg/kg/injection, schedule: Q01DX001 (ip), vehicle: saline with Tween-80 99 % of control | [10] 96 % of control | [11] 108 % of control

CC1(O)C(c2ccccc2)=C(c2ccccc2)C2(c3ccccc3)Oc3c(Cl)c(Cl)c(Cl)c(Cl)c3OC12c1ccccc1 (stereo unspecified)
inactive: dose: 12.5 mg/kg/injection, schedule: Q01DX009 (ip), vehicle: saline with Tween-80 94 % of control | dose: 25.0 mg/kg/injection, schedule: Q01DX009 (ip), vehicle: saline with Tween-80 94 % of control | dose: 50.0 mg/kg/injection, schedule: Q01DX009 (ip), vehicle: saline with Tween-80 90 % of control and 93 % of control

Oc1cc2c(c3c(O)c4ccccc4c(O)c13)=NC1CCCCC1N=2 (stereo unspecified)
inactive: [12] 100 % of control | [13] 102 % of control | [14] 103 % of control | [15] 93 % of control

COc1ccc(C2=NOP(c3ccccc3)(c3ccccc3)(c3ccccc3)C2)cc1
inactive: dose: 1.56 mg/kg/injection, schedule: Q01DX009 (ip), vehicle: water 102 % of control | dose: 3.13 mg/kg/injection, schedule: Q01DX009 (ip), vehicle: water 106 % of control | dose: 6.25 mg/kg/injection, schedule: Q01DX009 (ip), vehicle: water 90 % of control | dose: 12.5 mg/kg/injection, schedule: Q01DX009 (ip), vehicle: water 107 % of control | [16] 99 % of control | dose: 25.0 mg/kg/injection, schedule: Q01DX009 (ip), vehicle: water 104 % of control | [1] 105 % of control | dose: 100.0 mg/kg/injection, schedule: Q01DX009 (ip), vehicle: Klucel (hydroxypropylcellulose) (HPC) 101 % of control | dose: 200.0 mg/kg/injection, schedule: Q01DX009 (ip), vehicle: Klucel (hydroxypropylcellulose) (HPC) 101 % of control

COC(=O)c1c(C(=O)OC)c(Nc2ccccc2)c2ccccc2c1O
inactive: dose: 3.12 mg/kg/injection, schedule: Q01DX005 (ip), vehicle: Klucel (hydroxypropylcellulose) (HPC) 115 % of control | dose: 6.25 mg/kg/injection, schedule: Q01DX005 (ip), vehicle: Klucel (hydroxypropylcellulose) (HPC) 107 % of control | [17] 99 % of control

CNC1CCCCC1[N+](C)(C)C (stereo unspecified)
inactive: dose: 5.0 mg/kg/injection, schedule: Q01DX009 (ip), vehicle: saline sonified 95 % of control | dose: 10.0 mg/kg/injection, schedule: Q01DX009 (ip), vehicle: saline sonified 100 % of control | dose: 20.0 mg/kg/injection, schedule: Q01DX009 (ip), vehicle: saline sonified 100 % of control

CC(C)(C)[N]=[V]([Cl])([Cl])[Cl]
inactive: [17] 98 % of control | [12] 91 % of control | [13] 98 % of control and 91 % of control

O=C1CSc2ncccc2N1c1ccc([N+](=O)[O-])cn1
inactive: dose: 50.0 mg/kg/injection, schedule: Q01DX009 (ip), vehicle: suspension in saline 105 % of control | [5] 100 % of control | dose: 100.0 mg/kg/injection, schedule: Q01DX009 (ip), vehicle: suspension in saline 101 % of control | [6] 96 % of control | dose: 200.0 mg/kg/injection, schedule: Q01DX009 (ip), vehicle: suspension in saline 101 % of control

COc1ccc(Cl)cc1Cn1ccnc1
inactive: dose: 60.0 mg/kg/injection, schedule: Q01DX005 (ip), vehicle: saline with Tween-80 97 % of control | dose: 120.0 mg/kg/injection, schedule: Q01DX005 (ip), vehicle: saline with Tween-80 103 % of control

COc1ccc(S(=O)(=O)NN=C(C(=O)O)C(=O)O)cc1
inactive: dose: 25.0 mg/kg/injection, schedule: Q01DX005 (ip), vehicle: saline with Tween-80 102 % of control | [2] 102 % of control | [3] 95 % of control | [18] 109 % of control

COc1ccc(CCNC(=O)c2sc3ccccc3c2Cl)cc1OC
inactive: [13] 88 % of control | [14] 91 % of control | [15] 99 % of control

O=C(O)c1ccc(O)c(S)c1
inactive: dose: 100.0 mg/kg/injection, schedule: Q04DX003 (ip), vehicle: alcohol 106 % of control | dose: 200.0 mg/kg/injection, schedule: Q04DX003 (ip), vehicle: alcohol 101 % of control | dose: 400.0 mg/kg/injection, schedule: Q04DX003 (ip), vehicle: alcohol 105 % of control

Cc1ccc(S(=O)(=O)/C(=C/c2c(-c3ccccc3)c(-c3ccccc3)c3n2CCC3)NC=O)cc1
inactive: [10] 96 % of control | [11] 88 % of control | dose: 400.0 mg/kg/injection, schedule: Q01DX001 (ip), vehicle: saline with Tween-80 86 % of control

O=C(NC(Cc1ccccc1F)C(=O)O)c1ccccc1 (stereo unspecified)
inactive: [16] 98 % of control | dose: 50.0 mg/kg/injection, schedule: Q01DX009 (ip), vehicle: other 105 % of control | dose: 100.0 mg/kg/injection, schedule: Q01DX009 (ip), vehicle: other 98 % of control

O=C(Nc1cccc2c1C(=O)c1c(NC(=O)c3ccccc3)ccc(Nc3cccc4c3C(=O)c3ccccc3C4=O)c1C2=O)c1ccccc1
inactive: [2] 100 % of control | [3] 103 % of control | [18] 103 % of control

C=CCC(C(=C)Sc1ccccc1)S(=O)(=O)c1ccccc1 (stereo unspecified)
inactive: dose: 100.0 mg/kg/injection, schedule: Q04DX002 (ip), vehicle: saline with Tween-80 115 % of control | dose: 200.0 mg/kg/injection, schedule: Q04DX002 (ip), vehicle: saline with Tween-80 109 % of control | dose: 400.0 mg/kg/injection, schedule: Q04DX002 (ip), vehicle: saline with Tween-80 105 % of control

CCCCC1SC2=NCCN2C1(O)c1ccc(Cl)cc1 (stereo unspecified)
inactive: [13] 113 % of control | [14] 109 % of control

COC(OC)C(C)(C)NC1CCCCC1
inactive: [4] 105 % of control | [5] 104 % of control

COc1ccc(NC(=O)CCC(=O)O)cc1
inactive: dose: 100.0 mg/kg/injection, schedule: Q01DX009 (ip), vehicle: saline with Tween-80 95 % of control | dose: 200.0 mg/kg/injection, schedule: Q01DX009 (ip), vehicle: saline with Tween-80 95 % of control | dose: 400.0 mg/kg/injection, schedule: Q01DX009 (ip), vehicle: saline with Tween-80 91 % of control

O=C(Nc1ccc(N=C=S)cc1)c1cc(Br)cc(Br)c1O
inactive: dose: 50.0 mg/kg/injection, schedule: Q01DX001 (ip), vehicle: Klucel (hydroxypropylcellulose) (HPC) 101 % of control | dose: 100.0 mg/kg/injection, schedule: Q01DX001 (ip), vehicle: Klucel (hydroxypropylcellulose) (HPC) 99 % of control
